Assay results: article PMC10779086, “3-O-Methyltolcapone and Its Lipophilic Analogues Are Potent Inhibitors of Transthyretin Amyloidogenesis with High Permeability and Low Toxicity” (International Journal of Molecular Sciences, 2023)

What was measured:
[1] = Chromatographic Hydrophobicity Index (CHI); format: physicochemical
Source text: The assay is a chromatographic fast gradient reversed-phase method which allows to characterize the lipophilicity of compounds in high throughput screening regime at three different pH values (2.0; 7.4; 10.5). The so defined CHI is obtained from the gradient (buffer/Acetonitrile) retention time after calibrating the chromatographic system with a test mixture of ten known standard compounds. For most compounds, CHI is between 0 and 100 and it approximates the percentage (by volume) of acetonitrile required to achieve an equal distribution of compound between the mobile and the lipophilic stationary phase of a C18 chromatographic column. Compounds that are not retained on the column are assigned to a CHI value < 0, which means very low lipophilicity. For highly lipophilic compounds, which are strongly retained by the column, a CHI value of >100 is assigned. For any value in between, the actual CHI value is calculated based on the calibration line of the reference compounds [49].

[2] = plasma; cited from earlier work
[3] = tested on: HepG2 human liver cancer cell line; assay: Cytotoxicity in HepG2 cells (ATP viability assay); format: cell-based; details: 48 h
Protocol: Compounds were dissolved at the concentration of 50 mM in DMSO.
DMSO normalisation at 1.0% was performed in each well.
(§1) Cell viability was evaluated by measuring ATP levels using CellTiter Glo (Promega Cat.n. G7570) according to manufacturer’s instructions.

[4] = tested on: SH-SY5Y neuroblastoma human cell line; assay: Cytotoxicity in SH-SY5Y cells (ATP viability assay); format: cell-based; details: 48 h
Protocol: The neuroblastoma cell line SHSY-5Y (ATCC CRL2266) was cultured in EMEM ATCC medium supplemented with 10% FBS (Euroclone CAT No. ECS0180D), 100 units/mL penicillin, and 100 ug/mL streptomycin sulphate (Euroclone CAT No. ECB3001). Cells were grown at 37 °C in an atmosphere of 5% CO2 and plated at 10,000 cells/well in a 96-well plate (Corning Cat. N. 3610). The compounds were dissolved at a concentration of 10 mM in DMSO. Cells were stimulated for 48 h at 37 °C with serial dilutions of the compounds at the following concentrations: 0.1, 1, 10, 50, 100, and 200 μM and dispensed with an HP Dispenser (Tecan), as triplicates for each concentration. DMSO normalisation at 1.5% was performed in each well.
as §1

[5] = tested on: Caco-2 cells; assay: Caco-2 intestinal permeability; format: in vitro ADME, human; details: A→B, relative to tolcapone
Protocol: Caco-2 cells (cod. HTB-37) were bought from ATCC (American Type Culture Collection, Rockville, MD, USA). Caco-2 cells were cultured for 21 days on a 24 trans-well plate to reach the right confluence and differentiate until the formation of the intestinal epithelium mimetic monolayer. The test substance permeability was measured in both directions (apical to basolateral [A→B] and basolateral to apical [B→A]) across the cell monolayer. The assay was carried out in HBSS transport medium at pH 7.4. Test substance at single concentration (10 μM) was tested in duplicate at one time point (60 min). Monolayer integrity of Caco-2 cells was evaluated by TEER measurements during the experiment and by Lucifer Yellow test after the incubation with the test compound. The concentrations of the test substance and/or reference controls were measured by LC-MS/MS.
When the inhibitor leads the efflux ratio to a significant reduction (>50%) or to unity, the test compound is classified as a probable substrate of that efflux transporter. As control, the modulation of the efflux ratio of a reference known substrate (Digoxin) was evaluated with or without the respectively inhibitors in every experiment. […] In parallel, mass balance (%) of recovered test substance was also determined. […] Outside these ranges the permeability data is not reliable.

With `COc1cc(C(=O)c2ccc(C)cc2)cc([N+](=O)[O-])c1O` [3-OMT, 3-O-methyltolcapone] the “CHI (pH 2.0)” value [1] was 89.2, the “CHI (pH 7.4)” value [1] was 50.2 and the “CHI (pH 10.5)” value [1] was 46.0. The half-life [2] was 40.9 h, the EC50 [3] was 262 ± 20.7 µM and the EC50 [4] was 226.3 ± 1.3 µM.
With `COc1cc(C(=O)c2cc(C)cc(C)c2)cc([N+](=O)[O-])c1O` [Compound 1, (4-Hydroxy-3-methoxy-5-nitrophenyl)-1-(3,5-dimethylphenyl)methanone] the “CHI (pH 2.0)” value [1] was 97.8, the “CHI (pH 7.4)” value [1] was 55.5 and the “CHI (pH 10.5)” value [1] was 51.7. The “increase of permeability Papp value (A→B) compared to tolcapone” value [5] was 2.5 fold, the melting point was 144 to 145 °C and the EC50 [3] was 410 ± 33 µM. The EC50 [4] was 172 ± 5 µM.
For `COc1cc(C(=O)c2ccc(C)cc2C)cc([N+](=O)[O-])c1O` [Compound 2, (4-Hydroxy-3-methoxy-5-nitrophenyl)-1-(2,4-dimethylphenyl)methanone], the “CHI (pH 2.0)” value [1] was 96.1, the “CHI (pH 7.4)” value [1] was 53.8 and the “CHI (pH 10.5)” value [1] was 50.2. The “increase of permeability Papp value (A→B) compared to tolcapone” value [5] was 2.5 fold, the melting point was 126 to 127 °C and the EC50 [3] was 216 ± 2.2 µM. It also gave an EC50 [4] of 174 ± 3.7 µM.
